Assay results published in paper PMC7251123, “CX-5461 activates the DNA damage response and demonstrates therapeutic efficacy in high-grade serous ovarian cancer” (Nature Communications, 2020).

How the values were obtained:
[1] = test system: G-quadruplex DNA (GQ) structures; assay: Immunofluorescence of GQ DNA (1H6 antibody); assay type: cell-based, human; conditions: OVCAR8, OVCAR4 and OVCAR8 RAD51C KO cells; 1 h, 3 h and 24 h post-treatment; 1 μM
Procedure: To examine the mechanism of activation of ATM/ATR signalling, we investigated the effects of CX-5461 treatment on the formation of GQ structures in OVCAR8, OVCAR8 RAD51C KO and OVCAR4 cells (Fig. 4a, b and Supplementary Fig. 4A–D).
Fig. 4 CX-5461 induces R-loops stabilization in HR-proficient OVCAR8 cells. a Co-immunofluorescence (Co-IF) of GQ DNA and UBF as a nucleolar marker in OVCAR8 cells and OVCAR8 RAD51C KO cells treated with either vehicle, 1 μM CX-5461 or 10 μM TMPyP4 for 3 h. Representative images of three biologically independent experiments. b Quantitation of GQ DNA immunofluorescence. Signal intensities were analyzed using CellProfiler. […] Representative images of two biologically independent experiments. d Quantitation of R-loops signal intensity was performed using CellProfiler. n = 230 cells per treatment condition were examined over two independent experiments. […] RNA was extracted and 47S rRNA precursor levels were determined using primers specific to the 5’ETS of pre-rRNA. Expression levels were normalized to NONO mRNA and expressed as a fold change relative to vehicle (n = 3 biologically independent experiments), error bars represent mean ± SEM, statistical analysis was performed using a two-sided one-way ANOVA, Tukey’s multiple comparisons test (adjusted p-values are shown). […]

[2] = design: method as in PMID 31092402; conditions: Phase I CX-5461 dose escalation study ref 16; cited from earlier work

SMILES: Cc1cnc(CNC(=O)c2c(=O)c3ccc(N4CCCN(C)CC4)nc3n3c2sc2ccccc23)cn1 [CX-5461]
- GQ stabilization [1]: did not induce GQ stabilization
- plasma concentrations range, lower end [2]: 584.1 nM
